Converted amounts (≈) assume the structure as drawn. Each block holds one compound with its values, some of them ahead of it.
Columns and labels:
Format in all cases: physicochemical
[1] = Hygroscopicity experiment (DVS); details: for hygroscopicity (in words): DVS, 25° C.; for moisture absorbed: humidity increased to 80% RH at 25° C.
Description: The Dynamic Vapor Sorption (DVS) curve was acquired on the DVS Intrinsic of Surface Measurement Systems.
The DVS test results of the crystal form A and the crystal form B-1 were shown in FIG. 26 and FIG. 27, respectively.
The DVS test results of the crystal form C, crystal form D-2, crystal form E, and crystal form F were shown in FIG. 28, FIG. 29, FIG. 30, and FIG. 31.

[2] = Solid phase stability experiment (sealed at 60° C., HPLC purity); details: for solid phase stability (in words): 60° C., at 7 days and 21 days
Protocol: 5 mg of samples were weighed and sealed at 60° C., respectively. Another set of samples were sealed and stored at −20° C. as a control at the same time. All samples were characterized by HPLC at 7 days and 21 days to detect changes in purity.

[3] = Solubility experiment in 0.1M HCl, buffers and water; details: for Solubility (mg/mL) 0.1M HCl / Solubility (mg/mL) pH 4.5 / Solubility (mg/mL) pH 6.8 / Solubility (mg/mL) H2O: ambient temperature; for Solubility (mg/mL) pH 4.5: pH 4.5 buffer; for Solubility (mg/mL) pH 6.8: pH 6.8 buffer; for solubility in water compared with the free base (in words) / Solubility (mg/mL) H2O: water
Protocol: The solubilities of the following four kinds of salt and free base sample in 0.1M HCl, pH 4.5 buffer, pH 6.8 buffer, and water were tested at ambient temperature. In the test, the calibration curves of free base and four kinds of salt were plotted. 3 mg of solid samples of free base and four kinds of salt were weighed, respectively, and then 1 ml of the solvent was added, centrifuged after 30 min ultrasound. The supernatant was taken, and injected through the membrane, and the solubility was tested.

[4] = Solubility of crystal form I in common solvents; details: ambient temperature; for solubility: thermodynamic from solid
Protocol: The solubility of the crystal form I in 11 common solvents at ambient temperature was tested. In the experiment, the crystal form I was formulated into standard solutions of different concentrations using 50% acetonitrile as solvent according to the following table, and injected to the HPLC instrument. The peak area was recorded and the standard curve was plotted, and the curve equation: y=11.30762x, R^2=0.99998, which has a good linear correlation in a range of 4.9 μg/ml˜499 μg/ml was obtained. 10-80 mg of crystal form I was weighed into 0.5-10 ml of different solutions in the following table to prepare a saturated solution, sonicated for 3-5 min, dispersed evenly and then taken out, centrifuged at 12000 rpm for 5 min. The supernatant was drawn and diluted at a certain multiple, injected to the HPLC, the peak area was recorded, the sample concentration was calculated, and the pH of undiluted samples was determined.

SMILES: CS(=O)(=O)C1(c2cc(-c3cnc(N)cc3Cl)nc(N3CCOCC3)n2)CC1 [crystal form F]
- hygroscopicity (in words) [1]: almost no hygroscopicity
- moisture absorbed [1]: 0.26%

SMILES: CS(=O)(=O)C1(c2cc(-c3cnc(N)cc3Cl)nc(N3CCOCC3)n2)CC1 [crystal form C]
- solid phase stability (in words) [2]: good stability
- Purity (%) ([2]; 60° C.-0 day): 99.73%
- Total impurities (%) ([2]; 60° C.-0 day): 0.27%
- Purity (%) ([2]; 60° C.-7 days, sealed): 99.74%
- Total impurities (%) ([2]; 60° C.-7 days, sealed): 0.26%
- Purity (%) ([2]; 60° C.-21 days, sealed): 99.75%
- Total impurities (%) ([2]; 60° C.-21 days, sealed): 0.25%
- hygroscopicity (in words) [1]: almost no hygroscopicity
- moisture absorbed [1]: 0.17%
- Solubility (mg/mL) 0.1M HCl [3]: 1.875 mg/mL (≈ 4.57 mM)
- Solubility (mg/mL) pH 4.5 [3]: 0.027 mg/mL
- Solubility (mg/mL) pH 6.8 [3]: 0.010 mg/mL
- solubility in water compared with the free base (in words) [3]: obviously improved
- Solubility (mg/mL) H2O [3]: 0.174 mg/mL (≈ 0.424 mM)

SMILES: CS(=O)(=O)C1(c2cc(-c3cnc(N)cc3Cl)nc(N3CCOCC3)n2)CC1 [crystal form E]
- hygroscopicity (in words) [1]: almost no hygroscopicity
- moisture absorbed [1]: 0.12%

SMILES: CS(=O)(=O)C1(c2cc(-c3cnc(N)cc3Cl)nc(N3CCOCC3)n2)CC1 [crystal form D-2]
- solid phase stability (in words) [2]: good stability
- Purity (%) ([2]; 60° C.-0 day): 98.37%
- Total impurities (%) ([2]; 60° C.-0 day): 1.63%
- Purity (%) ([2]; 60° C.-7 days, sealed): 98.22%
- Total impurities (%) ([2]; 60° C.-7 days, sealed): 1.78%
- Purity (%) ([2]; 60° C.-21 days, sealed): 98.25%
- Total impurities (%) ([2]; 60° C.-21 days, sealed): 1.75%
- hygroscopicity (in words) [1]: almost no hygroscopicity
- moisture absorbed [1]: 0.14%
- Solubility (mg/mL) 0.1M HCl [3]: 1.195 mg/mL (≈ 2.92 mM)
- Solubility (mg/mL) pH 4.5 [3]: 0.031 mg/mL
- Solubility (mg/mL) pH 6.8 [3]: 0.013 mg/mL
- solubility in water compared with the free base (in words) [3]: slightly improved
- Solubility (mg/mL) H2O [3]: 0.023 mg/mL (≈ 0.0561 mM)

Second part, the compound after the results:

- solid phase stability (in words) [2]: good stability
- Purity (%) ([2]; 60° C.-0 day): 99.74%
- Total impurities (%) ([2]; 60° C.-0 day): 0.26%
- Purity (%) ([2]; 60° C.-7 days, sealed): 99.50%
- Total impurities (%) ([2]; 60° C.-7 days, sealed): 0.50%
- Purity (%) ([2]; 60° C.-21 days, sealed): 99.74%
- Total impurities (%) ([2]; 60° C.-21 days, sealed): 0.26%
- hygroscopicity (in words) [1]: slightly hygroscopic
- Solubility (mg/mL) 0.1M HCl [3]: >2.488 mg/mL
- Solubility (mg/mL) pH 4.5 [3]: 0.026 mg/mL
- Solubility (mg/mL) pH 6.8 [3]: 0.012 mg/mL
- solubility in water compared with the free base (in words) [3]: obviously improved
- Solubility (mg/mL) H2O [3]: 0.946 mg/mL (≈ 2.31 mM)
SMILES: CS(=O)(=O)C1(c2cc(-c3cnc(N)cc3Cl)nc(N3CCOCC3)n2)CC1 [crystal form B-1]

- solid phase stability (in words) [2]: good stability
- Purity (%) ([2]; 60° C.-0 day): 99.73%
- Total impurities (%) ([2]; 60° C.-0 day): 0.27%
- Purity (%) ([2]; 60° C.-7 days, sealed): 99.78%
- Total impurities (%) ([2]; 60° C.-7 days, sealed): 0.22%
- Purity (%) ([2]; 60° C.-21 days, sealed): 99.75%
- Total impurities (%) ([2]; 60° C.-21 days, sealed): 0.25%
- hygroscopicity (in words) [1]: slightly hygroscopic
- Solubility (mg/mL) 0.1M HCl [3]: >2.744 mg/mL
- Solubility (mg/mL) pH 4.5 [3]: 0.020 mg/mL
- Solubility (mg/mL) pH 6.8 [3]: 0.012 mg/mL
- solubility in water compared with the free base (in words) [3]: obviously improved
- Solubility (mg/mL) H2O [3]: 1.063 mg/mL (≈ 2.59 mM)
SMILES: CS(=O)(=O)C1(c2cc(-c3cnc(N)cc3Cl)nc(N3CCOCC3)n2)CC1 [crystal form A]

- hygroscopicity (in words) [1]: almost no hygroscopicity
- water absorbed ([1]; humidity increased to 90% RH at 25° C.): 0.084%
- Concentration ([4]; 50% acetonitrile): 10998 µg/mL
- Concentration ([4]; acetone): 28464 µg/mL
- Concentration ([4]; acetonitrile): 13724 µg/mL
- solubility ([4]; aqueous with cosolvent or surfactant or cyclodextrin, 50% acetonitrile): 11000 µg/mL (≈ 26.8 mM)
- Concentration ([4]; ethanol): 4680 µg/mL
- Concentration ([4]; ethyl acetate): 12441 µg/mL
- Concentration ([4]; isopropanol): 1837 µg/mL
- Concentration ([4]; methanol): 9459 µg/mL
- Concentration ([4]; methyl tert-butyl ether): 1044 µg/mL
- solubility ([4]; organic solvent or mixture, acetone): 28500 µg/mL (≈ 69.4 mM)
- solubility ([4]; organic solvent or mixture, acetonitrile): 13700 µg/mL (≈ 33.5 mM)
- solubility ([4]; organic solvent or mixture, ethanol): > 4680 µg/mL
- solubility ([4]; organic solvent or mixture, ethyl acetate): 12400 µg/mL (≈ 30.4 mM)
- solubility ([4]; organic solvent or mixture, isopropanol): > 1840 µg/mL
- solubility ([4]; organic solvent or mixture, methanol): > 9460 µg/mL
- solubility ([4]; organic solvent or mixture, methyl tert-butyl ether): > 1040 µg/mL
- solubility ([4]; organic solvent or mixture, tetrahydrofuran): 78100 µg/mL (≈ 191 mM)
- Concentration ([4]; tetrahydrofuran): 78135 µg/mL
- solubility ([4]; water): 185 µg/mL (≈ 0.451 mM)
- Concentration ([4]; water): 185 µg/mL
SMILES: CS(=O)(=O)C1(c2cc(-c3cnc(N)cc3Cl)nc(N3CCOCC3)n2)CC1 [crystal form I, 4-chloro-5-(6-(1-(methylsulfonyl)cyclopropyl)-2-morpholinopyrimidin-4-yl)pyridin-2-amine]

Source: patent publication US10544137B2, “PI3K inhibitor, and pharmaceutically acceptable salt, polycrystalline form, and application thereof” (SHANGHAI HAIYAN PHARMACEUTICAL TECHNOLOGY CO., LTD., priority 2016, dated 2020)
